Drawing on patent US7888464B2, “Hepatitis C virus inhibitors” (Bristol-Myers Squibb Company, priority 2006, dated 2011), this text covers IC50 and EC50 for one compound.

Assay [1] deals with T1, human neutrophil elastase (HNE) (Homo sapiens, UniProt P08246).
T1 construct: purchased Sigma, EMDbiosciences
T1 sequence (P08246 30-267): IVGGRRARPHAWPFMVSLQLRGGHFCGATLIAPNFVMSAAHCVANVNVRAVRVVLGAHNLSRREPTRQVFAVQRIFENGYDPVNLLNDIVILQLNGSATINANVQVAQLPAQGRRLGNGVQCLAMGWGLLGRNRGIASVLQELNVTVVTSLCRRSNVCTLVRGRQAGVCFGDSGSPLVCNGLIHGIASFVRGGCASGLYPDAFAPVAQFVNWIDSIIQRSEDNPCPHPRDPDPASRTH
Description: Specificity assay, neutrophil elastase. The format is biochemical. The settings on record: read-out: HLE activity in the specificity assays. The method, then: The specificities of compounds of the present disclosure were determined against a variety of serine proteases: human neutrophil elastase (HNE), porcine pancreatic elastase (PPE) and human pancreatic chymotrypsin and one cysteine protease: human liver cathepsin B. In all cases a 96-well plate format protocol using a fluorometric Amino-Methyl-Coumarin (AMC) substrate specific for each enzyme was used as described previously (PCT Patent Application No. WO 00/09543) with some modifications to the serine protease assays. All enzymes were purchased from Sigma, EMDbiosciences while the substrates were from Bachem, Sigma and EMDbiosciences.
Compound concentrations varied from 100 to 0.4 μM depending on their potency. The enzyme assays were each initiated by addition of substrate to enzyme-inhibitor pre-incubated for 10 min at room temperature and hydrolysis to 15% conversion as measured on cytofluor.
50 mM Tris-HCl, pH 8.0, 50 mM NaCl, 0.1 mM EDTA, 3% DMSO, 0.02% Tween-20, 5 μM succ-AAPV-AMC and 20 nM HNE or 8 nM PPE;
The percentage of inhibition was calculated using the formula: [1−((UVinh−UVblank)/(UVctl−UVblank))]×100
A non-linear curve fit was applied to the inhibition-concentration data, and the 50% effective concentration (IC50) was calculated by the use of Excel XLfit software.

Assay [2] has as its system HCV replicon (strain 1b) in HUH-7 cells. Put plainly: HCV replicon FRET assay. The note with it: Hepatitis C virus, Huh-7, read-out: EC50 in the replicon FRET assay. The format is cell-based. From the text:
An HCV replicon whole cell system was established as described by Lohmann V, Korner F, Koch J, Herian U, Theilmann L, Bartenschlager R., Science 285(5424): 110-3 (1999). This system enabled us to evaluate the effects of our HCV Protease compounds on HCV RNA replication. Briefly, using the HCV strain 1b sequence described in the Lohmann paper (Assession number: AJ238799), an HCV cDNA was synthesized by Operon Technologies, Inc. (Alameda, Calif.), and the full-length replicon was then assembled in plasmid pGem9zf(+) (Promega, Madison, Wis.) using standard molecular biology techniques. The replicon consists of (i) the HCV 5′ UTR fused to the first 12 amino acids of the capsid protein, (ii) the neomycin phosphotransferase gene (neo), (iii) the IRES from encephalomyocarditis virus (EMCV), and (iv) HCV NS3 to NS5B genes and the HCV 3′ UTR. Plasmid DNAs were linearized with ScaI and RNA transcripts were synthesized in vitro using the T7 MegaScript transcription kit (Ambion, Austin, Tex.) according to manufacturer's directions. In vitro transcripts of the cDNA were transfected into the human hepatoma cell line, HUH-7. […] Resulting cell lines were characterized for positive and negative strand RNA production and protein production over time.
The HCV replicon FRET assay was developed to monitor the inhibitory effects of compounds described in the disclosure on HCV viral replication. HUH-7 cells, constitutively expressing the HCV replicon, were grown in Dulbecco's Modified Eagle Media (DMEM) (Gibco-BRL) containing 10% Fetal calf serum (FCS) (Sigma) and 1 mg/ml G418 (Gibco-BRL). Cells were seeded the night before (1.5×10^4 cells/well) in 96-well tissue-culture sterile plates. Compound and no compound controls were prepared in DMEM containing 4% FCS, 1:100 Penicillin/Streptomysin (Gibco-BRL), 1:100 L-glutamine and 5% DMSO in the dilution plate (0.5% DMSO final concentration in the assay). Compound/DMSO mixes were added to the cells and incubated for 4 days at 37° C. After 4 days, cells were first assessed for cytotoxicity using alamar Blue (Trek Diagnotstic Systems) for a CC50 reading. The toxicity of compound (CC50) was determined by adding 1/10th volume of alamar Blue to the media incubating the cells. After 4 h, the fluorescence signal from each well was read, with an excitation wavelength at 530 nm and an emission wavelength of 580 nm, using the Cytofluor Series 4000 (Perspective Biosystems). Plates were then rinsed thoroughly with Phosphate-Buffered Saline (PBS) (3 times 150 μl). The cells were lysed with 25 μl of a lysis assay reagent containing an HCV protease substrate (5× cell Luciferase cell culture lysis reagent (Promega #E153A) diluted to 1× with distilled water, NaCl added to 150 mM final, the FRET peptide substrate (as described for the enzyme assay above) diluted to 10 μM final from a 2 mM stock in 100% DMSO. The plate was then placed into the Cytofluor 4000 instrument which had been set to 340 nm excitation/490 nm emission, automatic mode for 21 cycles and the plate read in a kinetic mode. EC50 determinations were carried out as described for the IC50 determinations.

In the case of `C=C[C@@H]1C[C@]1(NC(=O)[C@@H]1C[C@@](O)(c2ccc(-c3ccccc3)cc2)CN1C(=O)[C@@H](NC(=O)OC(C)(C)C)C(C)(C)C)C(=O)NS(=O)(=O)C1CC1` [Compound 3], the IC50 in assay [1] was determined as 82 µM. For the same compound, the concentration for a half-maximal effect (EC50) in assay [2] was 0.011 µM.
